From US6596733B2, “Use of nitric oxide scavengers to treat side effects caused by therapeutic administration of sources of nitric oxide” (Medinox, Inc., priority 1998, dated 2003)

How the values were obtained:
[1] = system: rats having physiological levels of nitric oxide; conditions: rat, in vivo
Method: (§1) A pressure sensor chip for a telemetric device (Data Scientific International, Saint Paul, Minn.) was implanted in the dorsal abdominal aorta of male Wistar rat (250-280 g). The rats were allowed to recover from the surgery over a period of 24 hours. The implanted rats were separated into two groups (n=3); One received 10 mg/ml of L-proline dithiocarbamate (L-PD) in drinking water and the other received only distilled water for 14 days. […] On average, in the experimental group, each rat received about 800 mg/kg/day for 14 days.

[2] = 10 mg/ml in drinking water for 14 days
Method: as §1

- amounts of water consumption, experimental vs control group [2]: no significant difference
- weight gain, experimental vs control group [2]: no significant difference
Compound: NC(=S)S.O=C(O)[C@@H]1CCCN1 [L-PD, L-proline dithiocarbamate]
- effect on blood pressure [1]: no effect
- effect on heart rate [1]: no effect
